Columns and labels:
Assay in all cases: radiometric filter-binding kinase assay, Kinase HotSpot
Settings in all cases: compound 0.5 µM; ATP 10 µM
STK16 (human) = STK16 (human) (UniProt O75716)
FRK (human) = FRK (human) (UniProt P42685)
CAMKK1 (human) = CAMKK1 (human) (UniProt Q8N5S9)
PAK1 (human) = PAK1 (human) (UniProt Q13153)
SRPK3 (human) = SRPK3 (human) (UniProt Q9UPE1)
RPS6KB2 (human) = RPS6KB2 (human) (UniProt Q9UBS0)
GRK7 (human) = GRK7 (human) (UniProt Q8WTQ7)
CAMK4 (human) = CAMK4 (human) (UniProt Q16566)
PRKD1 (human) = PRKD1 (human) (UniProt Q15139)
CAMK1G (human) = CAMK1G (human) (UniProt Q96NX5)
TYRO3 (human) = TYRO3 (human) (UniProt Q06418)
FGFR2 (human) = FGFR2 (human) (UniProt P21802)
ACVRL1 (human) = ACVRL1 (human) (UniProt P37023)
CDC42BPB (human) = CDC42BPB (human) (UniProt Q9Y5S2)
AKT3 (human) = AKT3 (human) (UniProt Q9Y243)
TAOK3 (human) = TAOK3 (human) (UniProt Q9H2K8)
ABL2 (human) = ABL2 (human) (UniProt P42684)
CLK2 (human) = CLK2 (human) (UniProt P49760)
GRK4 (human) = GRK4 (human) (UniProt P32298)
NEK2 (human) = NEK2 (human) (UniProt P51955)
LRRK2 (human) = LRRK2 (human) (UniProt Q5S007)
MAPKAPK5 (human) = MAPKAPK5 (human) (UniProt Q8IW41)
NEK7 (human) = NEK7 (human) (UniProt Q8TDX7)
MST4 (human) = MST4 (human) (UniProt Q9P289)
CDK1 CCNB1 (human) = CDK1 CCNB1 (human) (UniProt P06493+P14635)
STK3 (human) = STK3 (human) (UniProt Q13188)
BLK (human) = BLK (human) (UniProt P51451)
PDGFRB (human) = PDGFRB (human) (UniProt P09619)
TAOK2 (human) = TAOK2 (human) (UniProt Q9UL54)
LCK (human) = LCK (human) (UniProt P06239)
HIPK2 (human) = HIPK2 (human) (UniProt Q9H2X6)
MAP3K9 (human) = MAP3K9 (human) (UniProt P80192)
IKBKB (human) = IKBKB (human) (UniProt O14920)
MAP2K1 (human) = MAP2K1 (human) (UniProt Q02750)
FER (human) = FER (human) (UniProt P16591)
MAP3K14 (human) = MAP3K14 (human) (UniProt Q99558)
CDK6 CCND3 (human) = CDK6 CCND3 (human) (UniProt P30281+Q00534)
RPS6KB1 (human) = RPS6KB1 (human) (UniProt P23443)
ULK2 (human) = ULK2 (human) (UniProt Q8IYT8)
TEK (human) = TEK (human) (UniProt Q02763)
HIPK4 (human) = HIPK4 (human) (UniProt Q8NE63)
STK11 (human) = STK11 (human) (UniProt Q15831)

Chain of CLK2 (human) (P49760 whole entry, looked up): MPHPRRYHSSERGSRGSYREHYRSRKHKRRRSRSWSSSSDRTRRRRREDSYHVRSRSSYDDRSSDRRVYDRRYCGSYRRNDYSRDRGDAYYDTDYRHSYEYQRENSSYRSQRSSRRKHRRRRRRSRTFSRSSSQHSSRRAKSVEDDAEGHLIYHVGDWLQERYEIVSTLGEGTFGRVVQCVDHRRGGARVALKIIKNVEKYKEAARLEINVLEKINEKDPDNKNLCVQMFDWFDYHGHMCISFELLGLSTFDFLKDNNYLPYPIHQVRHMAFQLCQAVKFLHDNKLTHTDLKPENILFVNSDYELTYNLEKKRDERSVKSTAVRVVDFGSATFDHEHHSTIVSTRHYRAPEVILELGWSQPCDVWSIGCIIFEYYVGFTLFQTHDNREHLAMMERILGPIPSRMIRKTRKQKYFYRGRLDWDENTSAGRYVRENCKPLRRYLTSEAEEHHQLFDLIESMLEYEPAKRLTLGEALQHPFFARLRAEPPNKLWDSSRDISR
Chain of PAK1 (human) (Q13153 whole entry, looked up): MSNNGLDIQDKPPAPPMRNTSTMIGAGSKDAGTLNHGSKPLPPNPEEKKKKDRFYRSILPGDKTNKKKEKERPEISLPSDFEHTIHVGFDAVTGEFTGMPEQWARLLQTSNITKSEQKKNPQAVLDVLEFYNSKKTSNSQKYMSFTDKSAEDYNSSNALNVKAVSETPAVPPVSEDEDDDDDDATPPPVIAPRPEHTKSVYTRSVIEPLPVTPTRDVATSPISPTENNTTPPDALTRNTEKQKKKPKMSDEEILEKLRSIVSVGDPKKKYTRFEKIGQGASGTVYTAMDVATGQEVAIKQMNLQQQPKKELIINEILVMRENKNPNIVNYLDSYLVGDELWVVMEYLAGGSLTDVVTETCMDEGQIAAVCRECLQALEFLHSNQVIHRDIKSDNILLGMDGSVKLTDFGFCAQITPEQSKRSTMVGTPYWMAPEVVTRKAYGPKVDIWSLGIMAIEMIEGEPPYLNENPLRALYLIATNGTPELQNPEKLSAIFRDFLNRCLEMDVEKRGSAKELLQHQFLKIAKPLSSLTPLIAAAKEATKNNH
Chain of GRK7 (human) (Q8WTQ7 whole entry, looked up): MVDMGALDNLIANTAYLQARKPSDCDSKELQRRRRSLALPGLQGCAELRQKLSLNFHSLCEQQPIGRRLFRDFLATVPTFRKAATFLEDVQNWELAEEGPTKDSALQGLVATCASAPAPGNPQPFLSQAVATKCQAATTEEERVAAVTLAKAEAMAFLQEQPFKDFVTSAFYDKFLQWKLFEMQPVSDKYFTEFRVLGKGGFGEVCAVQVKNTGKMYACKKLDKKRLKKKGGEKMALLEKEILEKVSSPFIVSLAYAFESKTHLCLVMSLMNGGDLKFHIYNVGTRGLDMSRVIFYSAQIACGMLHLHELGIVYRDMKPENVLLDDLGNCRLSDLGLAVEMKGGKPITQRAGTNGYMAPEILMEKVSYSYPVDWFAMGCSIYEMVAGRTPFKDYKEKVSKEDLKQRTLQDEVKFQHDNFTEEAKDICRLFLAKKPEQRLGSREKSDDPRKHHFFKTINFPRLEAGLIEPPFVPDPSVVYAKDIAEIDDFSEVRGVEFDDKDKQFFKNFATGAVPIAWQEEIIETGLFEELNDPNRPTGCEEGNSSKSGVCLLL
Chain of LRRK2 (human) (Q5S007 whole entry, looked up): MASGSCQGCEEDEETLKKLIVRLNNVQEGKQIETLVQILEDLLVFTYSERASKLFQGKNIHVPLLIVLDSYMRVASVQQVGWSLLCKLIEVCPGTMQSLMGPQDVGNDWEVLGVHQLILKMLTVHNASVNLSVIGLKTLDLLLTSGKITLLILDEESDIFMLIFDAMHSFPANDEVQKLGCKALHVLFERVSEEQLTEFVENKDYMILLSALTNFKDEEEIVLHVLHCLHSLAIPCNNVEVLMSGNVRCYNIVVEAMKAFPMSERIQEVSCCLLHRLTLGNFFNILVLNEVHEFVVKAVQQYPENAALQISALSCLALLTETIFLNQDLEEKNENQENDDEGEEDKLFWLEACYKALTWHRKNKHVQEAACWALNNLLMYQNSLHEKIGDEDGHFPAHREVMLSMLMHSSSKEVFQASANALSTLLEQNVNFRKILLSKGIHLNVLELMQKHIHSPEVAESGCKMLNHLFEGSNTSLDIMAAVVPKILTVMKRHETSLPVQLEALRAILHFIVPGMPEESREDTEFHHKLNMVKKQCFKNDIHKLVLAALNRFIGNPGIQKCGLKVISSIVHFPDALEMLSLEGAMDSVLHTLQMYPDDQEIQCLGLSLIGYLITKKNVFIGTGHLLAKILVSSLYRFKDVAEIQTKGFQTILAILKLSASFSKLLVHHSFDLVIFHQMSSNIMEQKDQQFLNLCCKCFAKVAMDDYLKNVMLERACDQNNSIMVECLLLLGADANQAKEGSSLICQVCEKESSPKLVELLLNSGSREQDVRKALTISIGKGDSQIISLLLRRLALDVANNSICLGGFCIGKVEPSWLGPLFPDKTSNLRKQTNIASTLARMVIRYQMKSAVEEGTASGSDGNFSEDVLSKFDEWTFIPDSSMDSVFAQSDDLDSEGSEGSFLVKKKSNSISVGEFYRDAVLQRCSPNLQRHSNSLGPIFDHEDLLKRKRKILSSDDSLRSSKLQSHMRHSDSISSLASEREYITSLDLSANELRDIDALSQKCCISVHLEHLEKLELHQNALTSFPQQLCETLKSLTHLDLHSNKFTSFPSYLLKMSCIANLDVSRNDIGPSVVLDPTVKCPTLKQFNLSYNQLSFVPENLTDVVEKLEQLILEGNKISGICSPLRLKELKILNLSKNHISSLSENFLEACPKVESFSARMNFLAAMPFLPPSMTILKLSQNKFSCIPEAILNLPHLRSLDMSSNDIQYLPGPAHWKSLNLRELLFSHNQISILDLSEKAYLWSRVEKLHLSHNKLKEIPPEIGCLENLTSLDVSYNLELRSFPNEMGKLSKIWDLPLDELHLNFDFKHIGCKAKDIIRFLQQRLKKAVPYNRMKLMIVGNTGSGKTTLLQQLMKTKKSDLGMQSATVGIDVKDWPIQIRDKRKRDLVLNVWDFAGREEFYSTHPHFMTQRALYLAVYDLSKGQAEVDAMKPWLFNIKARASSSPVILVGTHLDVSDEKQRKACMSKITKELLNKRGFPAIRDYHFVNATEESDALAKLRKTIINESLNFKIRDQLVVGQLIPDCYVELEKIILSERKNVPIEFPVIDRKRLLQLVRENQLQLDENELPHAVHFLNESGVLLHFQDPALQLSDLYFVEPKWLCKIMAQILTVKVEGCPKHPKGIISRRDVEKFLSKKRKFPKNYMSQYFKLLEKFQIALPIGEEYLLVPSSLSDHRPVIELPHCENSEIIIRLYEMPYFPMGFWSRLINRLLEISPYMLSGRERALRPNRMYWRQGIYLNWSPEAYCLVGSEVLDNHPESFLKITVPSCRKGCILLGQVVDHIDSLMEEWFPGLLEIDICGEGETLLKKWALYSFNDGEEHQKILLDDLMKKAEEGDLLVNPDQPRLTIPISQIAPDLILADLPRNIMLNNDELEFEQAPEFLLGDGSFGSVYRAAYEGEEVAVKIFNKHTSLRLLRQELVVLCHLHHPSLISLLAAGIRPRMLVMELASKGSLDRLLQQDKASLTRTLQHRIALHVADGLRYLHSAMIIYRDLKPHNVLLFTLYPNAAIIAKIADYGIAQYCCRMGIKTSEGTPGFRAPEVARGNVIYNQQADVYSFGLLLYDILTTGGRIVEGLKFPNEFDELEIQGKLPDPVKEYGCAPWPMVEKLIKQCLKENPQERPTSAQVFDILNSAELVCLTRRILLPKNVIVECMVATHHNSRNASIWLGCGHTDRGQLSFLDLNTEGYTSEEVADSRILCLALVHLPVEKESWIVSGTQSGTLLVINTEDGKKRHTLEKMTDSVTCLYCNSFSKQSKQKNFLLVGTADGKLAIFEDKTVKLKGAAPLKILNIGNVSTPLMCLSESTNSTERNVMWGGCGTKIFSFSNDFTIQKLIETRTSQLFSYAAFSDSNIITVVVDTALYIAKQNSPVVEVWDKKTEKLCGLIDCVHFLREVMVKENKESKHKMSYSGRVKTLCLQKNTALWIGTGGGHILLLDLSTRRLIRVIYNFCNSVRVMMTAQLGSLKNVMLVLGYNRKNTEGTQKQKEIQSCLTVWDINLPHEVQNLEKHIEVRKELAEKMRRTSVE
Chain of MST4 (human) (Q9P289 whole entry, looked up): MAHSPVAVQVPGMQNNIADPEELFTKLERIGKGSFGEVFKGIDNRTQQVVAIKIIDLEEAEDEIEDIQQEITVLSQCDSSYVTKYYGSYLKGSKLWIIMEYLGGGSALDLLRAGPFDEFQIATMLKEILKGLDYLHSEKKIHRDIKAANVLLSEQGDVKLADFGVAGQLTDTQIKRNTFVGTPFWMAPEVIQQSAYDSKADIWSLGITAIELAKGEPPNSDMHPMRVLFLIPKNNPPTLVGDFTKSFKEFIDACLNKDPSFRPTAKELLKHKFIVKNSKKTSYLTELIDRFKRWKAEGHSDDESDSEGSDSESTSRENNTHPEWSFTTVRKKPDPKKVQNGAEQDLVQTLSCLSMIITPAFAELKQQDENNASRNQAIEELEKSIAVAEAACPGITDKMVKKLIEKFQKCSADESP
Chain of ACVRL1 (human) (P37023 whole entry, looked up): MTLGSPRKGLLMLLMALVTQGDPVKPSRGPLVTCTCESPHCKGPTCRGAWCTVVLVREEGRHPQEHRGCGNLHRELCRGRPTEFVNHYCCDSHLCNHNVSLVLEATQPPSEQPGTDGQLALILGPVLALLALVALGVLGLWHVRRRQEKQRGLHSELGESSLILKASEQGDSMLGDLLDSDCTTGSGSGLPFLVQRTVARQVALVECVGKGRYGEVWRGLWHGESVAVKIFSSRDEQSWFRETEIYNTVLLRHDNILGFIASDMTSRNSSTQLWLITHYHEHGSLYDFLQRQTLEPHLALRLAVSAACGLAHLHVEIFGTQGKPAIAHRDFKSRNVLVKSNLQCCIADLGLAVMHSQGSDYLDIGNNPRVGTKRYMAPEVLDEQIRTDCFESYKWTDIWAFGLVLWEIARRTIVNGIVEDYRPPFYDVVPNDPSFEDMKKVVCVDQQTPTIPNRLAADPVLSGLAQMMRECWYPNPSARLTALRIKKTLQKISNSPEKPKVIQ

## COc1ccc(S(=O)(=O)N(CCO)c2ccccc2CN(C)C/C=C/c2ccc(Cl)cc2)cc1
STK16 (human)
  residual activity: 102%
FRK (human)
  residual activity: 106%
CAMKK1 (human)
  residual activity: 106%
PAK1 (human)
  residual activity: 96%
SRPK3 (human)
  residual activity: 97.3%
RPS6KB2 (human)
  residual activity: 97.1%
GRK7 (human)
  residual activity: 114%
CAMK4 (human)
  residual activity: 97.5%
PRKD1 (human)
  residual activity: 100%
CAMK1G (human)
  residual activity: 101%
TYRO3 (human)
  residual activity: 97.1%
FGFR2 (human)
  residual activity: 98.6%
ACVRL1 (human)
  residual activity: 98.4%
CDC42BPB (human)
  residual activity: 101%
AKT3 (human)
  residual activity: 105%
TAOK3 (human)
  residual activity: 91.2%
ABL2 (human)
  residual activity: 97.4%
CLK2 (human)
  residual activity: 96.7%
GRK4 (human)
  residual activity: 94%
NEK2 (human)
  residual activity: 86.6%
LRRK2 (human)
  residual activity: 101%
MAPKAPK5 (human)
  residual activity: 100%
NEK7 (human)
  residual activity: 93.4%
MST4 (human)
  residual activity: 105%
CDK1 CCNB1 (human)
  residual activity: 105%
STK3 (human)
  residual activity: 101%
BLK (human)
  residual activity: 103%
PDGFRB (human)
  residual activity: 104%
TAOK2 (human)
  residual activity: 90.9%
LCK (human)
  residual activity: 95.5%
HIPK2 (human)
  residual activity: 107%
MAP3K9 (human)
  residual activity: 102%
IKBKB (human)
  residual activity: 98.1%
MAP2K1 (human)
  residual activity: 94.3%
FER (human)
  residual activity: 97.1%
MAP3K14 (human)
  residual activity: 90.8%
CDK6 CCND3 (human)
  residual activity: 102%
RPS6KB1 (human)
  residual activity: 103%
ULK2 (human)
  residual activity: 102%
TEK (human)
  residual activity: 105%
HIPK4 (human)
  residual activity: 101%
STK11 (human)
  residual activity: 97.7%

## O=C(c1cc2cc(O)ccc2[nH]1)c1cc2cc(O)ccc2[nH]1
STK16 (human)
  residual activity: 54.6%
FRK (human)
  residual activity: 86.1%
CAMKK1 (human)
  residual activity: 63.3%
PAK1 (human)
  residual activity: 94.6%
SRPK3 (human)
  residual activity: 99.4%
RPS6KB2 (human)
  residual activity: 102%
GRK7 (human)
  residual activity: 99.8%
CAMK4 (human)
  residual activity: 96.5%
PRKD1 (human)
  residual activity: 58.5%
CAMK1G (human)
  residual activity: 101%
TYRO3 (human)
  residual activity: 76.4%
FGFR2 (human)
  residual activity: 98.5%
ACVRL1 (human)
  residual activity: 98.4%
CDC42BPB (human)
  residual activity: 96.2%
AKT3 (human)
  residual activity: 102%
TAOK3 (human)
  residual activity: 66.6%
ABL2 (human)
  residual activity: 27.2%
CLK2 (human)
  residual activity: 105%
GRK4 (human)
  residual activity: 103%
NEK2 (human)
  residual activity: 101%
LRRK2 (human)
  residual activity: 87.2%
MAPKAPK5 (human)
  residual activity: 89.6%
NEK7 (human)
  residual activity: 101%
MST4 (human)
  residual activity: 101%
CDK1 CCNB1 (human)
  residual activity: 60.5%
STK3 (human)
  residual activity: 41.4%
BLK (human)
  residual activity: 49.7%
PDGFRB (human)
  residual activity: 41.7%
TAOK2 (human)
  residual activity: 99%
LCK (human)
  residual activity: 52%
HIPK2 (human)
  residual activity: 102%
MAP3K9 (human)
  residual activity: 42.6%
IKBKB (human)
  residual activity: 91.3%
MAP2K1 (human)
  residual activity: 103%
FER (human)
  residual activity: 86.6%
MAP3K14 (human)
  residual activity: 77.1%
CDK6 CCND3 (human)
  residual activity: 50.3%
RPS6KB1 (human)
  residual activity: 85%
ULK2 (human)
  residual activity: 94.5%
TEK (human)
  residual activity: 104%
HIPK4 (human)
  residual activity: 99.8%
STK11 (human)
  residual activity: 101%

## COc1cc2ncnc(Nc3ccc(OCc4ccccc4)cc3)c2cc1OC
STK16 (human)
  residual activity: 106%
FRK (human)
  residual activity: 104%
CAMKK1 (human)
  residual activity: 126%
PAK1 (human)
  residual activity: 93.2%
SRPK3 (human)
  residual activity: 92.8%
RPS6KB2 (human)
  residual activity: 108%
GRK7 (human)
  residual activity: 101%
CAMK4 (human)
  residual activity: 101%
PRKD1 (human)
  residual activity: 101%
CAMK1G (human)
  residual activity: 97.1%
TYRO3 (human)
  residual activity: 86.9%
FGFR2 (human)
  residual activity: 103%
ACVRL1 (human)
  residual activity: 102%
CDC42BPB (human)
  residual activity: 98.8%
AKT3 (human)
  residual activity: 103%
TAOK3 (human)
  residual activity: 91.7%
ABL2 (human)
  residual activity: 101%
CLK2 (human)
  residual activity: 102%
GRK4 (human)
  residual activity: 106%
NEK2 (human)
  residual activity: 107%
LRRK2 (human)
  residual activity: 92.2%
MAPKAPK5 (human)
  residual activity: 100%
NEK7 (human)
  residual activity: 101%
MST4 (human)
  residual activity: 91.6%
CDK1 CCNB1 (human)
  residual activity: 89.9%
STK3 (human)
  residual activity: 97.6%
BLK (human)
  residual activity: 88.2%
PDGFRB (human)
  residual activity: 93%
TAOK2 (human)
  residual activity: 106%
LCK (human)
  residual activity: 42.2%
HIPK2 (human)
  residual activity: 111%
MAP3K9 (human)
  residual activity: 96.5%
IKBKB (human)
  residual activity: 103%
MAP2K1 (human)
  residual activity: 94.7%
FER (human)
  residual activity: 90.8%
MAP3K14 (human)
  residual activity: 84.4%
CDK6 CCND3 (human)
  residual activity: 97.8%
RPS6KB1 (human)
  residual activity: 95.1%
ULK2 (human)
  residual activity: 97%
TEK (human)
  residual activity: 97.9%
HIPK4 (human)
  residual activity: 100%
STK11 (human)
  residual activity: 102%

## CN(C)c1ccc(/C=C2\C(=O)Nc3ccccc32)cc1
STK16 (human)
  residual activity: 87.9%
FRK (human)
  residual activity: 102%
CAMKK1 (human)
  residual activity: 98.6%
PAK1 (human)
  residual activity: 95.7%
SRPK3 (human)
  residual activity: 98.7%
RPS6KB2 (human)
  residual activity: 101%
GRK7 (human)
  residual activity: 100%
CAMK4 (human)
  residual activity: 97.8%
PRKD1 (human)
  residual activity: 100%
CAMK1G (human)
  residual activity: 99.9%
TYRO3 (human)
  residual activity: 92.7%
FGFR2 (human)
  residual activity: 98.2%
ACVRL1 (human)
  residual activity: 104%
CDC42BPB (human)
  residual activity: 89.5%
AKT3 (human)
  residual activity: 103%
TAOK3 (human)
  residual activity: 95.1%
ABL2 (human)
  residual activity: 100%
CLK2 (human)
  residual activity: 99.7%
GRK4 (human)
  residual activity: 103%
NEK2 (human)
  residual activity: 98.4%
LRRK2 (human)
  residual activity: 89.8%
MAPKAPK5 (human)
  residual activity: 98.6%
NEK7 (human)
  residual activity: 102%
MST4 (human)
  residual activity: 90.9%
CDK1 CCNB1 (human)
  residual activity: 94.1%
STK3 (human)
  residual activity: 100%
BLK (human)
  residual activity: 99.2%
PDGFRB (human)
  residual activity: 85.8%
TAOK2 (human)
  residual activity: 102%
LCK (human)
  residual activity: 93%
HIPK2 (human)
  residual activity: 106%
MAP3K9 (human)
  residual activity: 90.2%
IKBKB (human)
  residual activity: 105%
MAP2K1 (human)
  residual activity: 97.8%
FER (human)
  residual activity: 94.5%
MAP3K14 (human)
  residual activity: 67.7%
CDK6 CCND3 (human)
  residual activity: 96.4%
RPS6KB1 (human)
  residual activity: 97.1%
ULK2 (human)
  residual activity: 97.1%
TEK (human)
  residual activity: 102%
HIPK4 (human)
  residual activity: 98.3%
STK11 (human)
  residual activity: 99.4%

From the kinase profiling compilation of Christmann-Franck et al. (2016)
